Measurements taken from US11666589B2, “Pivarubicin and benzarubicin compositions” (Paradox Pharmaceuticals, Inc., priority 2020, dated 2023).
Read-outs that look alike come from different tables or passages of the source.

How the values were obtained:
LM2 tumors = experiment: Orthotopic xenograft of luminescent MDA-MB-231 (LM2) cells in mammary glands
Procedure: Monolayer LM2 cells were trypsinized and resuspended in DMEM media containing 10% FBS and 1× antibiotic/antimitotic. Cell concentration was adjusted to yield 2.5 […] for each 10 uL injection in PBS. After preparation for injection, cells were kept on ice at all times. Cells were surgically implanted into the left and right inguinal mammary glands of 4-week-old female NSG mice (NOD/SCID IL2Rγ−/−; Jackson Laboratory [Bar Harbor Me.] #5557) bred in-house. Mice were anesthetized with 1.2% avertin via intraperitoneal (i.p.) injection prior to surgery. Mice were also injected subcutaneously between shoulder blades with rimadyl for pain relief on day of surgery and on day following surgery. Primary tumor growth prior to and during treatment was monitored initially by manual palpation for tumor appearance, then twice weekly using digital calipers. Tumor volume was calculated by the formula: Volume=(Width2×Length)/2. When tumors attained a volume of approximately […], cohorts of 10 randomized drug-naïve, female, NSG mice (8±1 weeks old, 23±2 g) were administered the maximum tolerated dose (MTD) of pivarubicin, doxorubicin or the equivalent volume of vehicle (70% sterile saline, 15% ethanol, 15% Cremophor EL) as a bolus i.p. injection in parallel experiments. Tumor volumes were measured in a blinded manner.
Mice were imaged using Xenogen In Vivo Imaging System® Lumina from Perkin Elmer (Waltham Mass.). Stock D-Luciferin, Firefly, potassium salt (Perkin Elmer, 122799) was prepared in DPBS at a concentration of 30 mg/mL and sterile filtered with 0.2 micrometer syringe filter. Luciferin was further diluted to 15 mg/mL in DPBS prior to injection. Mice were injected i.p. with 200 uL of luciferin. Primary tumors were imaged by placing mice in dorsal recumbency using luminescent setting of auto exposure, field of view D with resolution setting of 4 (medium binning), 10 minutes after injection with luciferin, approximately 5 minutes following anesthetization with isoflurane. Data are reported as total flux in photons per second (p/s) using Living Image software.
In a study of doxorubicin treatment of TNBC-bearing NSG mice, LM2 cells were implanted into the 4R and 4L cleared mammary fat pads of female NSG mice and permitted to proliferate for 26 days until a tumor volume range of 125-190 mm3 was reached based on caliper measurements. Doxorubicin was administered IP rapid push in 70% sterile saline, 15% EtOH, 15% Cremophor EL at 14-day intervals, with tumor volumes measured at indicated days post-implantation, as summarized in FIG. 7A. […] At endpoint, mice were euthanized, and primary tumors resected for volume (FIG. 7B), weight (FIG. 7C), and luminescence (FIG. 7D) measurements. Endpoint results are expressed as the mean±standard error of 10 mice per group. Statistical significance was determined by the Wilcoxon rank-sum test.
Pivarubicin treatment of TNBC-bearing NSG mice was also studied. LM2 cells were implanted into the 4R and 4L cleared mammary fat pads of female NSG mice and permitted to proliferate for 22-24 days until a tumor volume range of 125-190 mm3 was reached based on caliper measurements. Pivarubicin was administered IP rapid push in 70% sterile saline, 15% EtOH, 15% Cremophor EL as either a single dose at 26.6 mg/kg (FIG. 8A) or in two 16.5-mg/kg doses at a 14-day interval (FIG. 8B) with tumor volumes measured at indicated days post-implantation. […] At endpoint, mice were euthanized, and primary tumors resected for volume (FIG. 8C) and weight (FIG. 8D) measurements. Results are expressed as the mean±standard error of 10 mice per group. Statistical significance was determined by the Wilcoxon rank-sum test.

MDA-MB-231 cells = experiment: Secondary tumorsphere formation; format: cell-based, human; details: 2.5 μM, up to 7 days
Procedure: either vehicle, pivarubicin (NV), or doxorubicin (DOX), and cultured for up to 7 days prior to obtaining the digital images shown in FIG. 6C (vehicle only), FIG. 6D (2.5 uM PIV), and FIG. 6E (2.5 uM DOX). The bar graph in FIG. 6F represents the mean number of tumorspheres greater than […] in diameter/well (n>3).

SUM159 cells = experiment: MTT cytotoxicity, TNBC monolayer SUM159; format: cell-based; details: SUM159, 48 h
Procedure: Based upon the ability of pivarubicin to circumvent multiple mechanisms of resistance against doxorubicin, we then examined the efficacy of pivarubicin against TNBC in comparison to doxorubicin, using the following procedure, using two basal TNBC cell lines. MDA-MB-231 cells and SUM-159 cells were maintained under adherent monolayer growth conditions. Upon reaching 50% confluency, cells were treated for 48 h with the dose range of doxorubicin or pivarubicin as indicated in FIGS. 6A and 6B. Cell viability was corrected for death observed in vehicle-only-treated cells (<1% ethanol final well concentration).

32D.3 cells = experiment: Cell viability by trypan blue with or without rottlerin
Procedure: Rottlerin treatment of cells, cell viability analysis by MTT [28] and immunoblot identification of protein expression were performed and described previously.
FIGS. 4A-4D are charts and images from studies of pivarubicin cytotoxicity mediated through PKC-delta (PKCd) activation. For FIG. 4A, 32D.3 cells, suspended in RPMI-1640 medium/10% FCS/IL-3 at a density of 5×10^5 cells/ml, were treated with either DMSO (C) or 5 μM pivarubicin (PIV) for 4 h prior to harvesting, cell fractionation, and immunoblot analysis of PKCd as described previously. For FIG. 4B, 32D.3 cells were pretreated with 10 μM rottlerin for 2 h prior to exposure to 5 μM drug for 1 h at 37° C. Cells were pelleted and washed twice in large volumes of warm PBS, then resuspended in fresh, drug-free medium containing 10 μM rottlerin at 5×10^5 cells/ml and incubated at 37° C. for up to 72 h. At indicated times, aliquots of cells were withdrawn and stained with trypan blue. Viable cells were scored based on the exclusion of stain and gross morphological appearance. For the results shown in FIGS. 4C and 4D, 32D.3 cells were transfected with PKCd siRNA or scrambled siRNA as described in the Materials and Methods section under “Chemicals and Biologicals”. The cells were then assessed for pivarubicin cytotoxicity as for FIG. 4A. Each datum point represents the mean and standard error of at least three independent determinations, each consisting of 300-500 cells per count, when possible.

[1] = without rottlerin, doxorubicin at IC50 concentration
[2] = two doses of 16.5 mg/kg i.p. at two-week interval, endpoint

| Structure (SMILES) | tumor growth compared with vehicle treatment (volume, weight) (LM2 tumors; 1.4 mg/kg, then 1.6 mg/kg 14 days later, i.p.) | weight loss in tumor-bearing mice (LM2 tumors; after 1.4 mg/kg and 1.6 mg/kg) | inhibition of secondary tumorsphere formation (MDA-MB-231 cells) | IC50 (SUM159 cells) | IC90 (SUM159 cells) | effect of rottlerin co-treatment on cytotoxicity (32D.3 cells; 10 μM rottlerin) | time to 50% cell kill (32D.3 cells; [1]) | mean decrease in tumor volume compared with mean volume prior to drug administration (LM2 tumors; single MTD dose (26.6 mg/kg i.p.)) | mean weight loss (poorly reversible) (LM2 tumors; single MTD, tumor-bearing NSG mice) | decrease in tumor volume compared with vehicle treatment (LM2 tumors; [2]) | decrease in tumor weight compared with vehicle treatment (LM2 tumors; [2]) | IC50 (SUM159 cells; MTT, read-out: IC50) | IC90 (SUM159 cells; MTT, read-out: IC90) | time to 50% cell kill (32D.3 cells; co-treatment with 10 μM rottlerin) |
| --- | --- | --- | --- | --- | --- | --- | --- | --- | --- | --- | --- | --- | --- | --- |
| COc1cccc2c1C(=O)c1c(O)c3c(c(O)c1C2=O)C[C@@](O)(C(=O)CO)C[C@@H]3O[C@H]1C[C@H](N)[C@H](O)[C@H](C)O1 [Doxorubicin, reference compound] | failed to exhibit reduced growth | excessive and irreversible weight loss | partial inhibition | 4 µM | > 20 µM | does not alter | 24 h | – | – | – | – | – | – | – |
| COc1cccc2c1C(=O)c1c(O)c3c(c(O)c1C2=O)C[C@@](O)(C(=O)COC(=O)C(C)(C)C)C[C@@H]3O[C@H]1C[C@H](NCc2ccccc2)[C@H](O)[C@H](C)O1 [Pivarubicin, N-Benzyladriamycin-14-pivalate] | – | – | complete inhibition | – | – | – | ≤ 6 h | 40% | 20% | 50% | 40% | 1.5 µM | 1.7 µM | 24 h |
